# Measured values reported in ChEMBL document CHEMBL1131309, “Isoindol-1-one analogues of 4-(2'-methoxyphenyl)-1-[2'-[N-(2"-pyridyl)-p-iodobenzamido]ethyl]pipera zine (p-MPPI) as 5-HT1A receptor ligands” (J Med Chem, 1998).
# Assays:
# [1] = test system: Rattus norvegicus; assay: Biodistribution was measured in rat kidney by injecting the radiolabeled compound intravenously and the value measured after 2 min; type: ADME, organism-based; settings: in vivo, iv
# [2] = test system: Rattus norvegicus; assay: Biodistribution was measured in rat striatum by injecting the radiolabeled compound intravenously and the value measured after 2 min; type: ADME, organism-based; settings: in vivo, iv
# [3] = test system: Rattus norvegicus; assay: Biodistribution was measured in rat cortex by injecting the radiolabeled compound intravenously and the value measured after 2 min; type: ADME, organism-based; settings: in vivo, iv
# [4] = test system: Rattus norvegicus; assay: Biodistribution was measured in rat thyroid by injecting the radiolabeled compound intravenously and the value measured after 2 min; type: ADME, organism-based, Thyroid gland; settings: in vivo, iv
# [5] = test system: Rattus norvegicus; assay: Biodistribution was measured in rat cortex by injecting the radiolabeled compound intravenously and the value measured after 30 min; type: ADME, organism-based; settings: in vivo, iv, 0.5 h
# [6] = test system: Rattus norvegicus; assay: Biodistribution was measured in rat skin by injecting the radiolabeled compound intravenously and the value measured after 60 min; type: ADME, organism-based, Zone of skin; settings: in vivo, iv, 1 h
# [7] = test system: Rattus norvegicus; assay: Biodistribution was measured in rat heart by injecting the radiolabeled compound intravenously and the value measured after 30 min; type: ADME, organism-based; settings: in vivo, iv, 0.5 h
# [8] = test system: Rattus norvegicus; assay: Biodistribution was measured in rat liver by injecting the radiolabeled compound intravenously and the value measured after 30 min; type: ADME, organism-based; settings: in vivo, iv, 0.5 h
# [9] = test system: Rattus norvegicus; assay: Biodistribution was measured in rat cerebellum by injecting the radiolabeled compound intravenously and the value measured after 60 min; type: ADME, organism-based; settings: in vivo, iv, 1 h
# [10] = test system: Rattus norvegicus; assay: Biodistribution was measured in rat brain by injecting the radiolabeled compound intravenously and the value measured after 30 min; type: ADME, organism-based; settings: in vivo, iv, 0.5 h
# [11] = test system: Rattus norvegicus; assay: Biodistribution was measured in rat brain by injecting the radiolabeled compound intravenously and the value measured after 60 min; type: ADME, organism-based; settings: in vivo, iv, 1 h
# [12] = test system: Rattus norvegicus; assay: Biodistribution was measured in rat thyroid by injecting the radiolabeled compound intravenously and the value measured after 60 min; type: ADME, organism-based, Thyroid gland; settings: in vivo, iv, 1 h
# [13] = molecular target: T1, 5-hydroxytryptamine receptor 1A (Rattus norvegicus, UniProt P19327)
# T1 sequence (P19327 whole entry): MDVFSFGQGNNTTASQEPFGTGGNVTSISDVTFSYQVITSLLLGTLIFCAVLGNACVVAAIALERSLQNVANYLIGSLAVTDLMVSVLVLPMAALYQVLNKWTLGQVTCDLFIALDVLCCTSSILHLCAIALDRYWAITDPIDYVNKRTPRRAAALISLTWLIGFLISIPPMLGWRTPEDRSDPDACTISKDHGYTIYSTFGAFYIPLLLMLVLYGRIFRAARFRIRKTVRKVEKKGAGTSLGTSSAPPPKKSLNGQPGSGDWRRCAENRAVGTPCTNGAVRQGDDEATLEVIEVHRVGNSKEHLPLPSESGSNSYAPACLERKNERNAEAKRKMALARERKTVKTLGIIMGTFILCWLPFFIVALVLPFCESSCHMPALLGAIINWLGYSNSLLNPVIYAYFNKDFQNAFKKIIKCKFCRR
# Description: (§1) In vitro binding affinity for 5-hydroxytryptamine 1A receptor in rat hippocampal membranes by [125I]-labeled agonist displacement.
# [14] = test system: Rattus norvegicus; assay: Biodistribution was measured in rat brain by injecting the radiolabeled compound intravenously and the value measured after 2 min; type: ADME, organism-based; settings: in vivo, iv
# [15] = test system: Rattus norvegicus; assay: Biodistribution was measured in rat cerebellum by injecting the radiolabeled compound intravenously and the value measured after 30 min; type: ADME, organism-based; settings: in vivo, iv, 0.5 h
# [16] = test system: Rattus norvegicus; assay: Biodistribution was measured in rat muscle by injecting the radiolabeled compound intravenously and the value measured after 2 min; type: ADME, organism-based, Muscle tissue; settings: in vivo, iv
# [17] = test system: Rattus norvegicus; assay: Biodistribution was measured in rat muscle by injecting the radiolabeled compound intravenously and the value measured after 60 min; type: ADME, organism-based, Muscle tissue; settings: in vivo, iv, 1 h
# [18] = test system: Rattus norvegicus; assay: Biodistribution was measured in blood of rat by injecting the radiolabeled compound intravenously and the value measured after 60 min; type: ADME, organism-based; settings: in vivo, iv, 1 h
# [19] = molecular target: T1, 5-hydroxytryptamine receptor 1A; remark: listed apart in the source
# Description: as §1
# [20] = test system: Rattus norvegicus; assay: Biodistribution was measured in rat hippocampus by injecting the radiolabeled compound intravenously and the value measured after 30 min; type: ADME, organism-based; settings: in vivo, iv, 0.5 h
# [21] = test system: Rattus norvegicus; assay: Biodistribution was measured in rat lung by injecting the radiolabeled compound intravenously and the value measured after 30 min; type: ADME, organism-based; settings: in vivo, iv, 0.5 h
# [22] = test system: Rattus norvegicus; assay: Biodistribution was measured in rat liver by injecting the radiolabeled compound intravenously and the value measured after 60 min; type: ADME, organism-based; settings: in vivo, iv, 1 h
# [23] = test system: Rattus norvegicus; assay: Biodistribution was measured in rat liver by injecting the radiolabeled compound intravenously and the value measured after 2 min; type: ADME, organism-based; settings: in vivo, iv
# [24] = test system: Rattus norvegicus; assay: Biodistribution was measured in blood of rat by injecting the radiolabeled compound intravenously and the value measured after 30 min; type: ADME, organism-based; settings: in vivo, iv, 0.5 h
# [25] = test system: Rattus norvegicus; assay: Biodistribution was measured in rat striatum by injecting the radiolabeled compound intravenously and the value measured after 60 min; type: ADME, organism-based; settings: in vivo, iv, 1 h
# [26] = test system: Rattus norvegicus; assay: Biodistribution was measured in rat lung by injecting the radiolabeled compound intravenously and the value measured after 60 min; type: ADME, organism-based; settings: in vivo, iv, 1 h
# [27] = Biodistribution was measured in hippocampus region(HP/CB) by injecting the radiolabeled compound intravenously and the value measured after 60 min; type: ADME, organism-based; settings: in vivo, iv, 1 h
# [28] = test system: Rattus norvegicus; assay: Biodistribution was measured in rat hippocampus by injecting the radiolabeled compound intravenously and the value measured after 60 min; type: ADME, organism-based; settings: in vivo, iv, 1 h
# [29] = test system: Rattus norvegicus; assay: Biodistribution was measured in rat spleen by injecting the radiolabeled compound intravenously and the value measured after 30 min; type: ADME, organism-based; settings: in vivo, iv, 0.5 h
# [30] = test system: Rattus norvegicus; assay: Biodistribution was measured in rat striatum by injecting the radiolabeled compound intravenously and the value measured after 30 min; type: ADME, organism-based; settings: in vivo, iv, 0.5 h
# [31] = Biodistribution was measured in hippocampus region(HP/CB) by injecting the radiolabeled compound intravenously and the value measured after 2 min; type: ADME, organism-based; settings: in vivo, iv
# [32] = test system: Rattus norvegicus; assay: Biodistribution was measured in blood of rat by injecting the radiolabeled compound intravenously and the value measured after 2 min; type: ADME, organism-based; settings: in vivo, iv
# [33] = test system: Rattus norvegicus; assay: Biodistribution was measured in rat hippocampus by injecting the radiolabeled compound intravenously and the value measured after 2 min; type: ADME, organism-based; settings: in vivo, iv
# [34] = test system: Rattus norvegicus; assay: Biodistribution was measured in rat kidney by injecting the radiolabeled compound intravenously and the value measured after 30 min; type: ADME, organism-based; settings: in vivo, iv, 0.5 h
# [35] = test system: Rattus norvegicus; assay: Biodistribution was measured in rat spleen by injecting the radiolabeled compound intravenously and the value measured after 2 min; type: ADME, organism-based; settings: in vivo, iv
# [36] = test system: Rattus norvegicus; assay: Biodistribution was measured in rat muscle by injecting the radiolabeled compound intravenously and the value measured after 30 min; type: ADME, organism-based, Muscle tissue; settings: in vivo, iv, 0.5 h
# [37] = test system: Rattus norvegicus; assay: Biodistribution was measured in rat lung by injecting the radiolabeled compound intravenously and the value measured after 2 min; type: ADME, organism-based; settings: in vivo, iv
# [38] = test system: Rattus norvegicus; assay: Biodistribution was measured in rat heart by injecting the radiolabeled compound intravenously and the value measured after 60 min; type: ADME, organism-based; settings: in vivo, iv, 1 h
# [39] = test system: Rattus norvegicus; assay: Biodistribution was measured in rat spleen by injecting the radiolabeled compound intravenously and the value measured after 60 min; type: ADME, organism-based; settings: in vivo, iv, 1 h
# [40] = test system: Rattus norvegicus; assay: Biodistribution was measured in rat skin by injecting the radiolabeled compound intravenously and the value measured after 30 min; type: ADME, organism-based, Zone of skin; settings: in vivo, iv, 0.5 h
# [41] = Biodistribution was measured in hippocampus region(HP/CB) by injecting the radiolabeled compound intravenously and the value measured after 30 min; type: ADME, organism-based; settings: in vivo, iv, 0.5 h
# [42] = test system: Rattus norvegicus; assay: Biodistribution was measured in rat cerebellum by injecting the radiolabeled compound intravenously and the value measured after 2 min; type: ADME, organism-based; settings: in vivo, iv
# [43] = test system: Rattus norvegicus; assay: Biodistribution was measured in rat heart by injecting the radiolabeled compound intravenously and the value measured after 2 min; type: ADME, organism-based; settings: in vivo, iv
# [44] = test system: Rattus norvegicus; assay: Biodistribution was measured in rat cortex by injecting the radiolabeled compound intravenously and the value measured after 60 min; type: ADME, organism-based; settings: in vivo, iv, 1 h
# [45] = test system: Rattus norvegicus; assay: Biodistribution was measured in rat thyroid by injecting the radiolabeled compound intravenously and the value measured after 30 min; type: ADME, organism-based, Thyroid gland; settings: in vivo, iv, 0.5 h
# [46] = test system: Rattus norvegicus; assay: Biodistribution was measured in rat kidney by injecting the radiolabeled compound intravenously and the value measured after 60 min; type: ADME, organism-based; settings: in vivo, iv, 1 h
smiles,measurement,setting,value
COc1ccccc1N1CCN(CCN2C(=O)c3cc(I)ccc3C2c2ccccc2)CC1 (centres undefined),Biodistribution,[1],4.01 % dose organ-1
same,Biodistribution,[2],0.204 % dose organ-1
same,Biodistribution,[3],0.242 % dose organ-1
same,Biodistribution,[4],0.073 % dose organ-1
same,Biodistribution,[5],0.081 % dose organ-1
same,Biodistribution,[6],4.96 % dose organ-1
same,Biodistribution,[7],0.3 % dose organ-1
same,Biodistribution,[8],18.65 % dose organ-1
same,Biodistribution,[9],0.035 % dose organ-1
same,Biodistribution,[10],0.11 % dose organ-1
same,Biodistribution,[11],0.04 % dose organ-1
same,Biodistribution,[12],0.06 % dose organ-1
same,Ki,[13],0.069 nM
same,Biodistribution,[14],0.26 % dose organ-1
same,Biodistribution,[15],0.08 % dose organ-1
same,Biodistribution,[16],9.45 % dose organ-1
same,Biodistribution,[17],8.83 % dose organ-1
same,Biodistribution,[18],1.22 % dose organ-1
same,Ki,[19],0.069 nM
same,Biodistribution,[20],0.09 % dose organ-1
same,Biodistribution,[21],0.7 % dose organ-1
same,Biodistribution,[22],10.76 % dose organ-1
same,Biodistribution,[23],21.36 % dose organ-1
same,Biodistribution,[24],1.92 % dose organ-1
same,Biodistribution,[25],0.035 % dose organ-1
same,Biodistribution,[26],0.56 % dose organ-1
same,Biodistribution,[27],1.06 % dose organ-1
same,Biodistribution,[28],0.037 % dose organ-1
same,Biodistribution,[29],0.22 % dose organ-1
same,Biodistribution,[30],0.093 % dose organ-1
same,Biodistribution,[31],0.87 % dose organ-1
same,Biodistribution,[32],2.84 % dose organ-1
same,Biodistribution,[33],0.177 % dose organ-1
same,Biodistribution,[34],2.32 % dose organ-1
same,Biodistribution,[35],0.26 % dose organ-1
same,Biodistribution,[36],14.35 % dose organ-1
same,Biodistribution,[37],2.05 % dose organ-1
same,Biodistribution,[38],0.15 % dose organ-1
same,Biodistribution,[39],0.15 % dose organ-1
same,Biodistribution,[40],5.8 % dose organ-1
same,Biodistribution,[41],1.12 % dose organ-1
same,Biodistribution,[42],0.202 % dose organ-1
same,Biodistribution,[43],1.42 % dose organ-1
same,Biodistribution,[44],0.028 % dose organ-1
same,Biodistribution,[45],0.05 % dose organ-1
same,Biodistribution,[46],1.42 % dose organ-1
COc1ccc([N+](=O)[O-])cc1N1CCN(CCN2C(=O)c3cc(I)ccc3C2c2ccccc2)CC1 (centres undefined),Ki,[19],51.7 nM
COc1ccccc1N1CCN(CCN2C(=O)c3cc([N+](=O)[O-])ccc3C2c2ccccc2)CC1 (centres undefined),Ki,[19],0.045 nM
COc1ccccc1N1CCN(CCN2C(=O)c3cc([N+](=O)[O-])ccc3C2(O)c2ccccc2)CC1 (centres undefined),Ki,[19],0.34 nM
